In article PMC12817916, “A small-molecule HSP90 inhibitor, NVP-HSP990, alleviates rotavirus infection” (Journal of Virology, 2025):

Test system: RV VP2, VP6, NSP4, NSP5
Assay: RV gene transcription and antigen expression in Caco-2 cells (qPCR, WB, IFA)
Type: cell-based, Rotavirus
Details: RV-infected Caco-2 cells, 18 h
Procedure: Caco-2 cells growing on coverslips were mock-infected with PBS or infected with RV Wa or SA11 strains (MOI = 1), then the cells were cultivated with DMEM containing 100 nM NVP-HSP990 or an equal volume of DMSO as a control for another 18 h after infection. The cells were then washed with PBS, fixed in 4% paraformaldehyde for 20 min, followed by permeabilization in 0.5% Triton X-100 for 10 min and blocking with 5% BSA (Beyotime, China) for 1 h at room temperature. The cells were then incubated with rabbit anti-ZO-1 monoclonal antibody (CST, USA) (1:100) or rabbit anti-RV VP6 polyclonal antibodies (CUSABIO, China) (1:50) for 2 h at room temperature, washed twice with PBS, and incubated with Cy3-conjugated goat anti-rabbit antibodies (Beyotime, China) (1:500) for 1 h at room temperature. In some experiments, the cells were also stained with FITC-conjugated goat anti-RV antibodies (Virostat, USA) (1:100) for 1 h at room temperature and followed by 5 µg/mL 2-(4-amidinophenyl)-6-indolecarbamidine dihydrochloride (DAPI) (Sigma-Aldrich, USA) staining for 10 min. The triple-stained cells were washed twice with PBS and mounted in Prolong Gold Antifade Reagent (CST, USA). Microscopic images were acquired with an EVOS M5000 system (Thermo Fisher Scientific, USA) using the built-in Celleste software (v.6.0). […] Minimal post-processing (image cropping and annotations) was applied through Adobe Illustrator 2019 (Adobe Systems, USA) to ensure readability. […]
MA104, Caco-2, and HT-29 cells were mock-infected with PBS, infected with RV Wa or SA11 strains (MOI = 3), or treated with 1 µM C16-PAF (C16) for 1 h. […] After protein quantification with a BCA kit (Beyotime, China), the protein samples were mixed with 25 µL 5× SDS loading buffer (Beyotime, China), boiled at 100°C for 5 min, chilled on ice, vortexed for seconds, and centrifuged at 12,000 × g for 3 min at room temperature. […]
(A) Caco-2 cells were infected with RV (Wa or SA11 strains) at varying MOIs (0.001–10), followed by treatment with 100 nM NVP-HSP990 or an equal volume of DMSO (as a control) for 24 h. Viral replication was assessed using PFA. […]

COc1cccc(-c2cc(F)ccc2[C@H]2Cc3nc(N)nc(C)c3C(=O)N2)n1 [NVP-HSP990]
RV VP6 expression (IFA) (100 nM): potent inhibition | RNA synthesis of RV proteins VP2, VP6, NSP4, and NSP5 (qPCR) (MOI = 1, 100 nM): significant reduction | RV structural protein VP6 (WB) (MOI = 1, 100 nM): remarkably reduced
